# Assay results as given in PMC9636434, “Discovery of small molecule agonists of the Relaxin Family Peptide Receptor 2” (Communications Biology, 2022).
# Several values for one entry are separate records, joined by “and”; a condition that tells them apart may be missing. Identical values can stand only once. Like-named read-outs stand apart in the source and are kept apart here.
# How the values were obtained:
# [1] = system: female gubernaculum (mouse RXFP2 receptor in vivo); experiment: Gubernaculum development in female embryos of treated pregnant mice (histology); details: 30 mg/kg IP to pregnant females, E12.5 to E17.5
# Protocol: The INSL3 surge that drives gubernaculum development during the transabdominal stage of testicular descent in male mice occurs between embryonic day E14.5 and 17.5[5],[6],[41]. In females, there is no detectable INSL3 expression and therefore the gubernaculum remains underdeveloped as a vestigial structure. […] Therefore, we hypothesized that the small molecule agonists of RXFP2 would show similar effects in female mice. Compound activity was tested by injecting pregnant females with the RXFP2 agonists starting from day E12.5 to E17.5 of embryonic development followed by histological evaluation of the gubernaculum in developing female embryos. […] At E18.5 the processus vaginalis or outpouching of the peritoneum occurs in males at the site of gubernacular caudal connection[43] (Fig. 3a). […] No differences were detected in the position of the ovaries in compound-treated female embryos and controls.
# Fig. 3 RXFP2 agonists are biologically active and selective in vivo. a Diagram of the treatment protocol and representative histological section of the developed male gubernaculum at embryonic day 18.5 (upper left). b Representative histological sections showing a male-like invagination of the female gubernaculum in all compound-treated embryos (blue arrows). Four female embryos were analyzed per group. Scale bar = 100 µm. […]
# [2] = Pharmacokinetic study, 3 mg/kg IV, 10 mg/kg PO and 10 mg/kg PO QD*3, plasma, liver and bone; type: in vivo, mouse; details: for Plasma concentration: individual values (1)-(3)
# Protocol: The concentration of compound in plasma, liver, and long bones was detected using liquid chromatography tandem mass spectrometry (LC-MS/MS). Samples were collected after a single intraperitoneal (IP) administration at 30 mg/kg, a single intravenous (IV) administration at 3 mg/kg, a single oral (PO) administration at 10 mg/kg, and a daily PO administration for 3 consecutive days at 10 mg/kg. The compound was formulated in 75% PEG300 + 25% of 40% aq. HPBCD for IV and PO administration and in 60% Phosal + 40% PEG300 for IP administration. All tissue samples were homogenized in water at a tissue weight to water volume ratio 1:3.
# IV administration, one 10 mg/kg PO administration and three 10 mg/kg PO administrations (QD*3). a Plasma, b liver and c bone profiles in female mice. The actual concentration (ng/g) is the detected value (ng/mL) multiplied by 4. Drug vehicle is 25% aq. 40% HP-b-CD - 75% PEG300. 3 mice were used per time point. Results are expressed as the mean ± SEM.
# [3] = female, C57BL/6J, mouse, bone (long bones), iv, 3 mg/kg, bone, IV, individual animals, read-out: Bone 6641 IV concentration
# [4] = female, C57BL/6J, mouse, bone (long bones), po, 10 mg/kg, bone, PO (QD*3), individual animals, read-out: Bone 6641 PO (QD*3) concentration
smiles,measurement,setting,value
O=C1Nc2ccc(-c3cc(C(F)(F)F)cc(C(F)(F)F)c3)cc2C(=O)N2CCN(C(=O)COc3ccc(OC(F)(F)F)cc3I)C[C@@H]12 [compound 6641],gubernaculum phenotype of female embryos at E18.5,[1],male-like invagination of the gubernaculum
same,accumulation,[2]; 10 mg/kg PO daily for 3 consecutive days,no accumulation
same,half-life,"[2]; C57BL/6J, mouse, in vivo, female mice, depending on the route of administration (3 mg/kg IV, 10 mg/kg PO)",4 to 6.5 h
same,bioavailability,"[2]; C57BL/6J, mouse, plasma, 10 mg/kg PO, female mice",25 to 31%
same,maximum concentration in bone tissue,"[2]; IV administration, 3 mg/kg",1072 ng/g
same,Plasma concentration,"[2]; IV, Time 0.083 h",2.772 µg/mL and 2.884 µg/mL
same,Plasma concentration,"[2]; IV, Time 0.25 h",1.472 µg/mL and 1.152 µg/mL
same,Plasma concentration,"[2]; IV, Time 0.5 h",0.786 µg/mL and 0.964 µg/mL
same,Plasma concentration,"[2]; IV, Time 1 h",0.583 µg/mL and 0.464 µg/mL
same,Plasma concentration,"[2]; IV, Time 3 h",0.259 µg/mL and 0.205 µg/mL
same,Plasma concentration,"[2]; IV, Time 7 h",0.0848 µg/mL and 0.0684 µg/mL
same,Plasma concentration,"[2]; IV, Time 24 h",0.00408 µg/mL and 0.00543 µg/mL
same,Plasma concentration,"[2]; IV, Time 48 h, N/A: Below detection level",0.000868 µg/mL
same,Plasma concentration,"[2]; PO (QD*3), Time 0.083 h",0.00756 µg/mL and 0.0052 µg/mL
same,Plasma concentration,"[2]; PO (QD*3), Time 0.25 h",0.0571 µg/mL and 0.0506 µg/mL
same,Plasma concentration,"[2]; PO (QD*3), Time 0.5 h",0.185 µg/mL and 0.245 µg/mL and 0.104 µg/mL
same,Plasma concentration,"[2]; PO (QD*3), Time 1 h",0.484 µg/mL and 0.346 µg/mL
same,Plasma concentration,"[2]; PO (QD*3), Time 3 h",0.344 µg/mL
same,Plasma concentration,"[2]; PO (QD*3), Time 7 h",0.125 µg/mL and 0.179 µg/mL
same,Plasma concentration,"[2]; PO (QD*3), Time 24 h",0.0039 µg/mL and 0.00549 µg/mL
same,Plasma concentration,"[2]; PO (QD*3), Time 48 h, N/A: Below detection level",0.001 µg/mL
same,maximum concentration in bone tissue,"[2]; PO administration, 10 mg/kg",170 to 300 ng/g
same,Plasma concentration,"[2]; PO, Time 0.25 h",0.0327 µg/mL and 0.0595 µg/mL
same,Plasma concentration,"[2]; PO, Time 0.5 h",0.159 µg/mL and 0.069 µg/mL and 0.12 µg/mL
same,Plasma concentration,"[2]; PO, Time 1 h",0.406 µg/mL and 0.323 µg/mL
same,Plasma concentration,"[2]; PO, Time 3 h",0.247 µg/mL and 0.204 µg/mL
same,Plasma concentration,"[2]; PO, Time 7 h",0.141 µg/mL and 0.122 µg/mL
same,Plasma concentration,"[2]; PO, Time 24 h",0.00808 µg/mL and 0.0046 µg/mL
same,concentration at 0.5 h,"[2]; female, C57BL/6J, mouse, bone (long bones), 10 mg/kg, bone, PO, individual animals, read-out: Bone 6641 PO concentration",20.3 ng/g
same,concentration at 0.083 h,[2]; [3],1180 ng/g
same,concentration at 0.25 h,[2]; [3],1100 ng/g
same,concentration at 0.5 h,[2]; [3],711 ng/g
same,concentration at 1 h,[2]; [3],632 ng/g
same,concentration at 3 h,[2]; [3],337 ng/g
same,concentration at 7 h,[2]; [3],87.9 ng/g
same,concentration at 48 h,"[2]; female, C57BL/6J, mouse, bone (long bones), iv, 3 mg/kg, bone, IV, 48 h, individual animals, N/A: Below detection level, read-out: Bone 6641 IV concentration",3.84 ng/g
same,concentration at 0.25 h,[2]; [4],19.5 ng/g
same,concentration at 0.5 h,[2]; [4],54.2 ng/g
same,concentration at 1 h,[2]; [4],168 ng/g
same,concentration at 3 h,[2]; [4],337 ng/g
same,concentration at 7 h,[2]; [4],141 ng/g
same,concentration at 24 h,"[2]; female, C57BL/6J, mouse, bone (long bones), po, 10 mg/kg, bone, PO (QD*3), 24 h, individual animals, read-out: Bone 6641 PO (QD*3) concentration",7.05 ng/g
same,concentration at 0.083 h,"[2]; female, C57BL/6J, mouse, bone (long bones), po, 10 mg/kg, bone, PO, individual animals, N/A: Below detection level, read-out: Bone 6641 PO concentration",3.07 ng/g
